# Results: ChEMBL document CHEMBL5236579, “Hydrophobicity Determines the Bacterial Killing Rate of α-Helical Antimicrobial Peptides and Influences the Bacterial Resistance Development” (J Med Chem, 2022)
# The source made the active and inactive calls. No cut-off for these calls is given here. Where a SMILES comes first, the peptide text is derived from it.
# What was measured:
# Staphylococcus aureus [1] = experiment: Antimicrobial activity against clinical isolates Staphylococcus aureus by two fold broth microdilution method; assay type: functional
# Vibrio parahaemolyticus [2] = experiment: Antimicrobial activity against Vibrio parahaemolyticus ATCC17802 by two fold broth microdilution method; assay type: functional
# Escherichia coli = experiment: Antimicrobial activity against Escherichia coli ATCC27622 by two fold broth microdilution method; assay type: functional
# Staphylococcus aureus [3] = experiment: Antimicrobial activity against Staphylococcus aureus ATCC25923 by two fold broth microdilution method; assay type: functional
# Bacillus cereus = experiment: Antimicrobial activity against clinical isolates Bacillus cereus by two fold broth microdilution method; assay type: functional
# Vibrio parahaemolyticus [4] = experiment: Bactericidal activity against Vibrio parahaemolyticus ATCC17802 assessed as killing rate at 0.5 X MIC by measuring time limit of detection by bacterial killing kinetic assay; assay type: functional
# Peritoneal macrophage = experiment: Cytotoxicity against mouse peritoneal macrophage cells incubated for 48 hrs by MTT assay; assay type: toxicity, cell-based; details: dose < 250 µg/ml
# Vibrio parahaemolyticus [5] = experiment: Induction of morphological changes in Vibrio parahaemolyticus ATCC17802 assessed as surface fibrosis incubated at 5 times MIC and measured after 180 mins by scanning electron microscopy based analysis; assay type: functional, organism-based
# HaCaT = experiment: Cytotoxicity against human HaCaT cells incubated for 48 hrs by MTT assay; assay type: toxicity, cell-based; details: dose < 250 µg/ml
# Cell membrane [6] = experiment: Induction of inner membrane permeabilization in Vibrio parahaemolyticus ATCC17802 assessed as increase in PI fluorescence intensity at 5 times MIC by propidium iodide penetration assay; assay type: cell membranes; details: time <= 200.0 min
# Vibrio parahaemolyticus [7] = experiment: Induction of morphological changes in Vibrio parahaemolyticus ATCC17802 assessed as massive cell collapse incubated at 5 times MIC and measured after 180 mins by scanning electron microscopy based analysis; assay type: functional, organism-based
# Vibrio parahaemolyticus [8] = experiment: Induction of morphological changes in Vibrio parahaemolyticus ATCC17802 assessed as cellular inclusion leakage incubated at 5 times MIC and measured after 180 mins by scanning electron microscopy based analysis; assay type: functional, organism-based
# Cell membrane [9] = experiment: Induction of inner membrane permeabilization in Vibrio parahaemolyticus ATCC17802 assessed as calcein leakage at 5 times MIC by calcein-AM leakage assay; assay type: cell membranes; details: time <= 200.0 min, TDE = time-dependent effect
# Cell membrane [10] = experiment: Induction of inner membrane permeabilization in Vibrio parahaemolyticus ATCC17802 at 5 times MIC measured upto 200 mins by propidium iodide penetration assay; assay type: cell membranes
SMILES,MIC (Staphylococcus aureus [1]) [µg/mL],MIC (Escherichia coli) [µg/mL],MIC (Staphylococcus aureus [3]; read-out: MIC) [µg/mL],MIC (Bacillus cereus) [µg/mL],MIC (Staphylococcus aureus [3]) [µg/mL],MIC (Vibrio parahaemolyticus [2]) [µg/mL],Time (Vibrio parahaemolyticus [4]) [min],Activity (Peritoneal macrophage),Activity (Vibrio parahaemolyticus [5]),Activity (HaCaT),Activity (Cell membrane [6]),Activity (Vibrio parahaemolyticus [7]),Activity (Vibrio parahaemolyticus [8]),Activity (Cell membrane [9]),Activity (Cell membrane [10])
CC[C@H](C)[C@H](NC(=O)[C@H](CC(C)C)NC(=O)[C@H](CCCNC(=N)N)NC(=O)[C@H](CC(C)C)NC(=O)[C@H](CC(C)C)NC(=O)[C@H](CC(C)C)NC(=O)[C@H](CCCCN)NC(=O)[C@H](Cc1ccccc1)NC(=O)[C@H](CC(C)C)NC(=O)CNC(=O)[C@@H](N)CC(C)C)C(=O)N[C@@H](CC(C)C)C(=O)N[C@@H](CCCCN)C(=O)NCC(=O)N[C@@H](Cc1ccccc1)C(=O)N[C@@H](CCCCN)C(=O)N[C@@H](CC(C)C)C(=O)O (H-LGLFKLLLRLILKGFKL-OH),> 200,> 200,,> 200,> 200,> 200,,,,,,,,,
CC[C@H](C)[C@H](NC(=O)[C@H](CC(C)C)NC(=O)[C@H](CCCNC(=N)N)NC(=O)[C@H](CC(C)C)NC(=O)[C@H](CC(C)C)NC(=O)[C@H](CC(C)C)NC(=O)[C@H](CC(C)C)NC(=O)[C@H](Cc1ccccc1)NC(=O)[C@H](CC(C)C)NC(=O)CNC(=O)[C@@H](N)CC(C)C)C(=O)N[C@@H](CC(C)C)C(=O)N[C@@H](CCCCN)C(=O)NCC(=O)N[C@@H](Cc1ccccc1)C(=O)N[C@@H](CCCCN)C(=O)N[C@@H](CC(C)C)C(=O)O (H-LGLFLLLLRLILKGFKL-OH),> 200,> 200,,> 200,> 200,> 200,,,,,,,,,
CC[C@H](C)[C@H](NC(=O)[C@H](CCCCN)NC(=O)[C@H](CCCNC(=N)N)NC(=O)[C@H](C)NC(=O)[C@H](CC(C)C)NC(=O)[C@H](CCCCN)NC(=O)[C@H](CCCCN)NC(=O)[C@H](Cc1ccccc1)NC(=O)[C@H](CC(C)C)NC(=O)CNC(=O)[C@@H](N)CCCNC(=N)N)C(=O)N[C@@H](CCCCN)C(=O)N[C@@H](CCCCN)C(=O)NCC(=O)N[C@@H](Cc1ccccc1)C(=O)N[C@@H](CCCCN)C(=O)N[C@@H](CCCCN)C(=O)O (H-RGLFKKLARKIKKGFKK-OH),37.5,9.38,4.69,9.38,,4.69,>180,Dose-Dependent Effect,Active,Dose-Dependent Effect,Active,Active,Active,,
CC[C@H](C)[C@H](NC(=O)[C@H](CCCCN)NC(=O)[C@H](CCCNC(=N)N)NC(=O)[C@H](CCCNC(=N)N)NC(=O)[C@H](CC(C)C)NC(=O)[C@H](CCCCN)NC(=O)[C@H](CCCCN)NC(=O)[C@H](Cc1ccccc1)NC(=O)[C@H](CC(C)C)NC(=O)CNC(=O)[C@@H](N)CCCNC(=N)N)C(=O)N[C@@H](CCCCN)C(=O)N[C@@H](CCCCN)C(=O)NCC(=O)N[C@@H](Cc1ccccc1)C(=O)N[C@@H](CCCCN)C(=O)N[C@@H](CCCCN)C(=O)O (H-RGLFKKLRRKIKKGFKK-OH),18.8,18.8,4.69,9.38,,4.69,>180,,,,Active,,,,
CN[C@H](CC(C)C)C(=O)N[C@H]1C(=O)N[C@@H](CC(N)=O)C(=O)N[C@H]2C(=O)N[C@H]3C(=O)N[C@H](C(=O)N[C@H](C(=O)O)c4cc(O)cc(O)c4-c4cc3ccc4O)[C@H](O)c3ccc(c(Cl)c3)Oc3cc2cc(c3O[C@@H]2O[C@H](CO)[C@@H](O)[C@H](O)[C@H]2O[C@H]2C[C@](C)(N)[C@H](O)[C@H](C)O2)Oc2ccc(cc2Cl)[C@H]1O [VANCOMYCIN],> 200,75,0.59,> 200,,75,,,,,,,,,

# Continued, in another order:
MIC (Staphylococcus aureus [1]) [µg/mL],MIC (Escherichia coli) [µg/mL],MIC (Staphylococcus aureus [3]; read-out: MIC) [µg/mL],MIC (Bacillus cereus) [µg/mL],MIC (Staphylococcus aureus [3]) [µg/mL],SMILES,MIC (Vibrio parahaemolyticus [2]) [µg/mL],Time (Vibrio parahaemolyticus [4]) [min],Activity (Peritoneal macrophage),Activity (Vibrio parahaemolyticus [5]),Activity (HaCaT),Activity (Cell membrane [6]),Activity (Vibrio parahaemolyticus [7]),Activity (Vibrio parahaemolyticus [8]),Activity (Cell membrane [9]),Activity (Cell membrane [10])
18.8,9.38,9.38,18.8,,CC[C@H](C)[C@H](NC(=O)[C@H](C)NC(=O)[C@H](CCCNC(=N)N)NC(=O)[C@H](C)NC(=O)[C@H](CC(C)C)NC(=O)[C@H](CCCCN)NC(=O)[C@H](CCCCN)NC(=O)[C@H](Cc1ccccc1)NC(=O)[C@H](CC(C)C)NC(=O)CNC(=O)[C@H](C)N)C(=O)N[C@@H](C)C(=O)N[C@@H](CCCCN)C(=O)NCC(=O)N[C@@H](Cc1ccccc1)C(=O)N[C@@H](CCCCN)C(=O)N[C@@H](C)C(=O)O (H-AGLFKKLARAIAKGFKA-OH),4.69,>180,,,,,,,,
18.8,9.38,4.69,9.38,,CC[C@H](C)[C@H](NC(=O)[C@H](C)NC(=O)[C@H](CCCNC(=N)N)NC(=O)[C@H](C)NC(=O)[C@H](CC(C)C)NC(=O)[C@H](CCCCN)NC(=O)[C@H](CCCCN)NC(=O)[C@H](Cc1ccccc1)NC(=O)[C@H](CC(C)C)NC(=O)CNC(=O)[C@H](C)N)C(=O)N[C@@H](CCCCN)C(=O)N[C@@H](CCCCN)C(=O)NCC(=O)N[C@@H](Cc1ccccc1)C(=O)N[C@@H](CCCCN)C(=O)N[C@@H](CCCCN)C(=O)O (H-AGLFKKLARAIKKGFKK-OH),4.69,>180,Dose-Dependent Effect,Active,Dose-Dependent Effect,Active,Active,Active,,
18.8,9.38,4.69,9.38,,CC[C@H](C)[C@H](NC(=O)[C@H](C)NC(=O)[C@H](CCCNC(=N)N)NC(=O)[C@H](C)NC(=O)[C@H](CC(C)C)NC(=O)[C@H](CCCCN)NC(=O)[C@H](CCCCN)NC(=O)[C@H](Cc1ccccc1)NC(=O)[C@H](CC(C)C)NC(=O)CNC(=O)[C@H](C)N)C(=O)N[C@@H](CCCCN)C(=O)N[C@@H](CCCCN)C(=O)NCC(=O)N[C@@H](Cc1ccccc1)C(=O)N[C@@H](CCCCN)C(=O)N[C@@H](CC(C)C)C(=O)O (H-AGLFKKLARAIKKGFKL-OH),4.69,>180,,,,Active,,,,
18.8,9.38,9.38,18.8,,CC[C@H](C)[C@H](NC(=O)[C@H](C)NC(=O)[C@H](CCCNC(=N)N)NC(=O)[C@H](C)NC(=O)[C@H](CC(C)C)NC(=O)[C@H](CCCCN)NC(=O)[C@H](CCCCN)NC(=O)[C@H](Cc1ccccc1)NC(=O)[C@H](CC(C)C)NC(=O)CNC(=O)[C@@H](N)CCCNC(=N)N)C(=O)N[C@@H](CCCCN)C(=O)N[C@@H](CCCCN)C(=O)NCC(=O)N[C@@H](Cc1ccccc1)C(=O)N[C@@H](CCCCN)C(=O)N[C@@H](CCCCN)C(=O)O (H-RGLFKKLARAIKKGFKK-OH),4.69,>180,,,,Active,,,,
18.8,4.69,2.34,9.38,,CC[C@H](C)[C@H](NC(=O)[C@H](CC(C)C)NC(=O)[C@H](CCCNC(=N)N)NC(=O)[C@H](CC(C)C)NC(=O)[C@H](CC(C)C)NC(=O)[C@H](CCCCN)NC(=O)[C@H](CCCCN)NC(=O)[C@H](Cc1ccccc1)NC(=O)[C@H](CC(C)C)NC(=O)CNC(=O)[C@@H](N)CCCNC(=N)N)C(=O)N[C@@H](CCCCN)C(=O)N[C@@H](CCCCN)C(=O)NCC(=O)N[C@@H](Cc1ccccc1)C(=O)N[C@@H](CCCCN)C(=O)N[C@@H](CCCCN)C(=O)O (H-RGLFKKLLRLIKKGFKK-OH),4.69,60,,,,Active,,,Tde,Active
9.38,9.38,4.69,4.69,,CC[C@H](C)[C@H](NC(=O)[C@H](CCCCN)NC(=O)[C@H](CCCNC(=N)N)NC(=O)[C@H](CCCNC(=N)N)NC(=O)[C@H](CC(C)C)NC(=O)[C@H](CCCCN)NC(=O)[C@H](CCCCN)NC(=O)[C@H](Cc1ccccc1)NC(=O)[C@H](CC(C)C)NC(=O)CNC(=O)[C@H](CCCNC(=N)N)NC(=O)[C@@H](N)CCCNC(=N)N)C(=O)N[C@@H](CCCCN)C(=O)N[C@@H](CCCCN)C(=O)NCC(=O)N[C@@H](Cc1ccccc1)C(=O)N[C@@H](CCCCN)C(=O)N[C@@H](CCCCN)C(=O)N[C@H](C(=O)N[C@@H](Cc1ccccc1)C(=O)N[C@@H](CCCCN)C(=O)N[C@@H](CCCNC(=N)N)C(=O)N[C@@H](CC(C)C)C(=O)N1CCC[C@H]1C(=O)N1CCC[C@H]1C(=O)N[C@H](C(=O)NCC(=O)N[C@H](C(=O)NCC(=O)N[C@H](C(=O)N[C@@H](CO)C(=O)N[C@H](C(=O)N1CCC[C@H]1C(=O)N[C@@H](CC(C)C)C(=O)N[C@@H](C)C(=O)NCC(=O)N[C@@H](CCCNC(=N)N)C(=O)N[C@@H](CCCNC(=N)N)C(=O)O)[C@@H](C)CC)C(C)C)C(C)C)C(C)C)[C@@H](C)CC (H-RRGLFKKLRRKIKKGFKKIFKRLPPVGVGVSIPLAGRR-OH),4.69,120,,,,,,,,
9.38,9.38,2.34,9.38,,CC[C@H](C)[C@H](NC(=O)[C@H](CCCCN)NC(=O)[C@H](CC(C)C)NC(=O)[C@H](C)NC(=O)CNC(=O)[C@H](CC(N)=O)NC(=O)[C@H](CC(C)C)NC(=O)[C@@H](NC(=O)[C@H](CCCCN)NC(=O)[C@H](CCCCN)NC(=O)[C@H](Cc1c[nH]c2ccccc12)NC(=O)[C@H](Cc1ccccc1)NC(=O)[C@H](CCCCN)NC(=O)[C@H](CCCNC(=N)N)NC(=O)[C@H](CCCNC(=N)N)NC(=O)[C@@H](N)[C@@H](C)O)C(C)C)C(=O)N[C@@H](C)C(=O)N1CCC[C@H]1C(=O)N[C@@H](Cc1ccccc1)C(=O)N[C@@H](CC(C)C)C(=O)N[C@@H](CC(C)C)C(=O)NCC(=O)O (H-TRRKFWKKVLNGALKIAPFLLG-OH),4.69,15,,,,,,,,
